Laboratory results published in patent US20210332396A1, “GENETIC ELEMENTS IN ENTEROCOCCUS SPP. TO PRODUCE DOPAMINE” (Iowa State University Research Foundation, Inc., priority 2018, published 2021).

Tests used:
[1] = tested on: E. faecium strain ML1082; experiment: Inhibition of dopamine production of strain ML1082 by Carbidopa in sSIM; format: cell-based, Enterococcus faecium
Procedure: To further verify the strains were producing dopamine from L-DOPA, Carbidopa, an inhibitor of dopamine production through L-DOPA decarboxylation, was added to sSIM. […] A functional approximation of the ICso for dopamine was calculated to be 1.53E^−3. The IC50 was similar to the L-DOPA concentration of the broth, 1.26 mM, a finding that may indicate a competitive inhibitory mechanism for the bacterial enzyme.

[2] = cited from earlier work

Row | SMILES | inhibition of dopamine production (in words) [1] | half-life of auto-oxidation ([2]; pH of 5.6) [h] | reaction rate for the auto-oxidation (k) ([2]; pH of 5.6) [s⁻¹] | half-life of oxidation ([2]; pH of 7.4) [min] | oxidation rate ([2]; pH of 7.4) [s⁻¹]
1 | C[C@@](Cc1ccc(O)c(O)c1)(NN)C(=O)O [Carbidopa] | dose-dependent inhibition | – | – | – | –
2 | NCCc1ccc(O)c(O)c1 [dopamine] | – | 324 | 0.000000591 | 4.95 | 0.000586
